Source: PubChem BioAssay (NCI)
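Five concentrations, 48 hours, 96-well plates. TGI: concentration producing complete growth inhibition.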

Legend:
Test in all cases: NCI-60 cell line screen, 48 h
SK-OV-3 ovarian = tested on: SK-OV-3 ovarian
SR leukemia = tested on: SR leukemia
SNB-19 CNS = tested on: SNB-19 CNS
ACHN renal = tested on: ACHN renal
PC-3 prostate = tested on: PC-3 prostate
NCI-H23 lung = tested on: NCI-H23 lung
SF-539 CNS = tested on: SF-539 CNS
CCRF-CEM leukemia = tested on: CCRF-CEM leukemia
K-562 leukemia = tested on: K-562 leukemia
IGROV1 ovarian = tested on: IGROV1 ovarian
TK-10 renal = tested on: TK-10 renal
HS 578T breast = tested on: HS 578T breast
MOLT-4 leukemia = tested on: MOLT-4 leukemia
M14 melanoma = tested on: M14 melanoma
OVCAR-4 ovarian = tested on: OVCAR-4 ovarian
UACC-257 melanoma = tested on: UACC-257 melanoma
EKVX NSCLC = tested on: EKVX NSCLC
T-47D breast = tested on: T-47D breast

| Compound | TGI (SK-OV-3 ovarian) [µM] | TGI (SR leukemia) [µM] | TGI (SNB-19 CNS) [µM] | TGI (ACHN renal) [µM] | TGI (PC-3 prostate) [µM] | TGI (NCI-H23 lung) [µM] | TGI (SF-539 CNS) [µM] | TGI (CCRF-CEM leukemia) [µM] | TGI (K-562 leukemia) [µM] | TGI (IGROV1 ovarian) [µM] | TGI (TK-10 renal) [µM] | TGI (HS 578T breast) [µM] | TGI (MOLT-4 leukemia) [µM] | TGI (M14 melanoma) [µM] | TGI (OVCAR-4 ovarian) [µM] | TGI (UACC-257 melanoma) [µM] | TGI (EKVX NSCLC) [µM] | TGI (T-47D breast) [µM] |
| --- | --- | --- | --- | --- | --- | --- | --- | --- | --- | --- | --- | --- | --- | --- | --- | --- | --- | --- |
| CN(/N=C/c1ccnc2ccccc12)c1ccc(Cl)cc1[N+](=O)[O-] | > 100 | > 100 | > 100 | > 100 | > 100 | > 100 | > 100 | > 100 | > 100 | > 100 | > 100 | 52.2 | > 100 | > 100 | 69.1 | > 100 | > 100 |  |
| O=C(NCc1cccc2ccccc12)N/N=C\c1ccc(Cl)cc1 |  | > 100 | > 100 | > 100 | > 100 | > 100 | > 100 | > 100 | > 100 | > 100 | > 100 |  | > 100 | > 100 | > 100 | > 100 | > 100 | > 100 |
| Cc1cn([C@@H]2O[C@H](CO[Si](C)(C)C(C)(C)C)[C@]3(O[C@H]3C(=O)NN)[C@H]2O[Si](C)(C)C(C)(C)C)c(=O)[nH]c1=O | 36.2 |  | 21.7 | 15.6 | 11.4 | 30 | 16.3 | 5.43 | 7.17 | 18.6 | 26.9 | 6.93 | 6.02 | 20.4 | 22.6 | 27.6 | 22.4 | 6.32 |
| C[N+]1(CCCl)CC[N+](C)(CCCl)CC1 (stereo not drawn) | > 100 |  | > 100 | > 100 | > 100 | > 100 | > 100 | > 100 | > 100 | > 100 | > 100 | > 100 | > 100 | > 100 | > 100 | > 100 | > 100 | > 100 |
| CC(=O)OC1COC(Nc2nc(NCc3ccccc3)n(C)c(=O)c2N=O)C(OC(C)=O)C1OC(C)=O (stereo not drawn) | > 10 |  | > 10 | > 10 | > 10 | > 10 | > 10 | > 10 | > 10 | > 10 | > 10 | > 10 | > 10 | > 10 | > 10 | > 10 | > 10 | > 10 |
| Oc1ccc(Cl)cc1CN1CCN(Cc2cc(Cl)ccc2O)C1 | 13.3 |  | 12.2 | 4.25 | 6.69 | 5.53 | 2.81 | > 100 | 5.86 | 6.47 | 9.69 | 8.99 | 12 | 2.87 | 17 | 5.48 | 6.09 | 10.9 |
| CC(C)=CCC/C(C)=C/CC/C(C)=C/CC/C(=C/CC/C(C)=C\CC/C(C)=C/CC/C(C)=C/CC/C(C)=C/Cc1cc(O)ccc1O)CO | 40.7 | > 37.6 | > 100 | 34.9 | 15.5 | 4.89 | 2.48 | > 30.7 | > 100 | 10.9 | 19.5 | 8.44 | > 59.5 | 4.88 | 19.7 | 11.8 | 33.5 |  |
